Data taken from patent US9856259B2, “Heterocyclic compounds and uses thereof” (Plexxikon Inc., priority 2014, dated 2018).

System: cancer cell lines / MV-4-11 Myc reporter cell line
Assay: Bromodomain cell assays of Example 8 (at least one of them)
Assay type: cell-based
Details: Homo sapiens, MV4-11; at least one of the bromodomain cell assays described in Example 8
Description: In this study, we test compounds in different cancer cell lines. MV-4-11 and MOLM-13 are AML cell lines harboring a MLL-AF4 and MLL-AF9 translocation, respectively. MM.1S is a multiple myeloma cell line. SK—N-AS, IMR-32 and SK-N-BE(2) are neuroblastoma cell lines. IMR-32 and SK-N-BE(2) cell lines harbor MYCN amplifications.
MV-4-11, MM.1S, IMR-32, SK-N-AS and SK-N-BE(2) were obtained from ATCC (IL, USA) and MOLM-13 were purchased from DSMZ (Braunschweig, German). Cells are cultured as recommended by their sources. For growth inhibition studies 3000 cells are seeded in wells of a 96-well plate in 75 μL of culture media. After several hours, growth media containing compounds of formula (I) are added to the wells. Compound at a maximal concentration of 5 mM was serially diluted 1:3 for a total of 8 point titration with DMSO as a control. A 1 μL aliquot of each dilution point is added to 249 μL growth media and 75 μL is added to each well containing cells, providing 10 μM compound at the maximum concentration point. The final concentration of DMSO in all wells is 0.2%. Cells are incubated for 72 hours, and 25 μL of CellTiter Glo Reagent (Promega Ga., USA) is added to each well. Plates are shaken for approximately 10 minutes and chemiluminescent signal is read on Tecan microplate reader. The measured luminescence correlates directly with cell number.
All data is normalized to the mean of eight DMSO high control wells on each plate. A four parameter curve fit of the following formula was then applied: Y=a+(b−a)/(1+(x/c)^d) Where ‘a’ is the minimum, ‘b’ is the maximum, ‘c’ is the pIC50 and ‘d’ is the Hill slope. […] Myc Reporter Assay
In MV-4-11 cells, BRD2, BRD3 and BRD4 bind to the promoter region of MYC and regulate its transcription (Dawson M A et al. 2011). The literature bromodomain inhibitor iBET 151 could disrupt BRD4 recruitment to the MYC promoter and subsequently downregulate c-myc transcription (Dawson M A et al. 2011). Myc protein is a transcription factor that heterodimerizes with an obligatory partner Max and regulates the transcription of genes important for cell proliferation, differentiation, and apoptosis. This Myc reporter assay is used to monitor the inhibitory effect of compound of formula (I) on Myc dependent gene expression. Effective compounds could have potential therapeutic effects in Myc-driven tumors.
The MV-4-11 Myc reporter cell line is established by infecting MV-4-11 with VSV-g pseudotyped lentivirus expressing the firefly luciferase gene under the control of a minimal (m) CMV promoter and tandem repeats of the E-box transcriptional response element (TRE) (Qiagen IL, USA) and selecting cells in 2.5 μg/ml Puromycin.
The MV-4-11 Myc reporter cell line is maintained in Iscove's Modified Dulbecco's Medium containing 10% FBS, 1% PenStep and 2.5 μg/ml Puromycin. Cells are incubated at 37° C. in a humidified atmosphere with 5% CO2. 25,000 cells are seeded in 96-well plate in 50 μL of culture media. After several hours, growth media containing 2× compounds are added to the wells. Compound at a maximal concentration of 5 mM is serially diluted 1:3 for a total of 8 point titration. A 1 μl aliquot of each dilution point is added to 249 μl growth media and 50 μl is added to each well containing cells, providing 10 μM compound at the maximum concentration point. DMSO treated cells serve as a high control and 10 μM JQ1 treated cells serve as a low control. Cells are incubated for a further 24 hours and 25 μL of CellTiter-Fluo Reagent (Promega Ga., USA) is added to each well. Plates are shaken for approximately 2 minutes and incubated at 37° C. for 0.5 hour. Fluorescence signal is read in a Tecan Plate reader (λex=400 nm, λcm=505 nm). 25 μL of One-Glo Reagent (Promega Ga., USA) is then added to the plates. Chemiluminescent signal is read on Tecan plate reader. Values from the wells with no cells are subtracted from all samples for background correction. […]

Row | SMILES | IC50
1 | Cc1noc(C)c1-c1cnc2c(I)nn([C@@H](C)c3ccccn3)c2c1 [Compound P-2091, 4-[3-iodo-1-[(1S)-1-(2-pyridyl)ethyl]pyrazolo[4,3-b]pyridin-6-yl]-3,5-dimethyl-isoxazole] | < 10 µM
2 | Cc1noc(C)c1-c1cnc2c(-c3ccc(CC(=O)O)cc3)nn([C@@H](C)c3ccccn3)c2c1 [Compound P-2094, 2-[4-[6-(3,5-dimethylisoxazol-4-yl)-1-[(1S)-1-(2-pyridyl)ethyl]pyrazolo[4,3-b]pyridin-3-yl]phenyl]acetic acid] | < 10 µM
3 | Cc1noc(C)c1-c1cnc2c(I)nn(C(c3ccccc3)c3ccccn3)c2c1 (centres unmarked) [Compound P-2095, 4-[3-iodo-1-[phenyl(2-pyridyl)methyl]pyrazolo[4,3-b]pyridin-6-yl]-3,5-dimethyl-isoxazole] | < 10 µM
4 | CCOC(=O)c1ccc(-n2nc(Cc3ccccc3)c3cc(-c4c(C)noc4C)ccc32)c(F)c1 [Compound P-2036, ethyl 4-[3-benzyl-5-(3,5-dimethylisoxazol-4-yl)indazol-1-yl]-3-fluoro-benzoate] | < 10 µM
5 | Cc1noc(C)c1-c1cnc2c(-c3ccc(C(=O)O)cc3)nn([C@@H](C)c3ccccn3)c2c1 [Compound P-2093, 4-[6-(3,5-dimethylisoxazol-4-yl)-1-[(1S)-1-(2-pyridyl)ethyl]pyrazolo[4,3-b]pyridin-3-yl]benzoic acid] | < 10 µM
6 | Cc1noc(C)c1-c1ccc2c(c1)c(Cc1ccccc1)nn2-c1ccc(C(=O)O)cc1F [Compound P-2037, 4-[3-benzyl-5-(3,5-dimethylisoxazol-4-yl)indazol-1-yl]-3-fluoro-benzoic acid] | < 10 µM
7 | Cc1noc(C)c1-c1ccc2[nH]nc(Cc3ccccc3)c2c1 [Compound P-2035, 4-(3-benzyl-1H-indazol-5-yl)-3,5-dimethyl-isoxazole] | < 10 µM

The next lines start with the values.

Row | IC50 | SMILES
8 | < 10 µM | CCOC(=O)c1ccc(-n2nc(Cc3ccccc3)c3cc(-c4c(C)noc4C)cnc32)c(F)c1 [Compound P-2101, ethyl 4-[3-benzyl-5-(3,5-dimethylisoxazol-4-yl)pyrazolo[3,4-b]pyridin-1-yl]-3-fluoro-benzoate]
9 | < 10 µM | Cc1noc(C)c1-c1cnc2[nH]nc(Cc3ccccc3)c2c1 [Compound P-2100, 4-(3-benzyl-1H-pyrazolo[3,4-b]pyridin-5-yl)-3,5-dimethyl-isoxazole]
10 | < 10 µM | Cc1noc(C)c1-c1cnc2c(c1)c(Cc1ccccc1)nn2-c1ccc(C(=O)O)cc1F [Compound P-2102, 4-[3-benzyl-5-(3,5-dimethylisoxazol-4-yl)pyrazolo[3,4-b]pyridin-1-yl]-3-fluoro-benzoic acid]
11 | < 10 µM | Cc1noc(C)c1-c1cnc2c(-c3cnn(CC(F)(F)F)c3)nn([C@@H](C)c3ccccn3)c2c1 [Compound P-2098, 3,5-dimethyl-4-[1-[(1S)-1-(2-pyridyl)ethyl]-3-[1-(2,2,2-trifluoroethyl)pyrazol-4-yl]pyrazolo[4,3-b]pyridin-6-yl]isoxazole]
12 | < 10 µM | Cc1noc(C)c1-c1cnc2c(-c3ccc(C(=O)O)cc3)nn(C(c3ccccc3)c3ccccn3)c2c1 (centres unmarked) [Compound P-2096, 4-[6-(3,5-dimethylisoxazol-4-yl)-1-[phenyl(2-pyridyl)methyl]pyrazolo[4,3-b]pyridin-3-yl]benzoic acid]
13 | < 10 µM | Cc1noc(C)c1-c1cnc2c(-c3ccc(CC(=O)O)cc3)nn(C(c3ccccc3)c3ccccn3)c2c1 (centres unmarked) [Compound P-2097, 2-[4-[6-(3,5-dimethylisoxazol-4-yl)-1-[phenyl(2-pyridyl)methyl]pyrazolo[4,3-b]pyridin-3-yl]phenyl]acetic acid]
14 | < 10 µM | Cc1noc(C)c1-c1cnc2c(-c3cnn(C)c3)nn([C@@H](C)c3ccccn3)c2c1 [Compound P-2099, 3,5-dimethyl-4-[3-(1-methylpyrazol-4-yl)-1-[(1S)-1-(2-pyridyl)ethyl]pyrazolo[4,3-b]pyridin-6-yl]isoxazole]
